Ki data for 20 molecules are collected here from US20050209278A1, “Piperidinyl- and piperazinyl-sulfonylmethyl hydroxamic acids and their use as protease inhibitors” (priority 2002, published 2005).

Usually Ki stands for the equilibrium dissociation constant of an inhibitor or competing ligand from its target.

Molecules are shown by their SMILES. Structures can show the parent of a compound that is named as a salt. Where two headings read alike, the source gives them in different places.

One assay addresses T1, MMP-2 (Homo sapiens, UniProt P08253).
T1 construct: made in house; host or cells: MMP-2-transfected p2AHT2 cells
T1 sequence (P08253 110-660): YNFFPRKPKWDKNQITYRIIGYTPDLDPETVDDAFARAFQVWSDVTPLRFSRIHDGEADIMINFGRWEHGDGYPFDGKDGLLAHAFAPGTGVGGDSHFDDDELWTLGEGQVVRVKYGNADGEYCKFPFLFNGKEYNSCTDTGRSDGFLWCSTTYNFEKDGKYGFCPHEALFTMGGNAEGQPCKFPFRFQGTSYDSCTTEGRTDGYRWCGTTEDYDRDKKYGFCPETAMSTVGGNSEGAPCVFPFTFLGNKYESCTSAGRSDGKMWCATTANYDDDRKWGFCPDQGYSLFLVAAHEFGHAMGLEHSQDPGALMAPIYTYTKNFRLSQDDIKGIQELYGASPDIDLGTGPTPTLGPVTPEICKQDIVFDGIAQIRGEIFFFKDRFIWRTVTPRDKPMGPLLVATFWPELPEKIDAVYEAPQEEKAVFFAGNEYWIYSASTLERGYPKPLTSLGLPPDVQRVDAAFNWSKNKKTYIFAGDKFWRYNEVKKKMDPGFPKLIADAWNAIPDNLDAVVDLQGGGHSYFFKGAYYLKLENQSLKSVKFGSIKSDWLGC
Description: In vitro MMP inhibition, Ki determination (fluorogenic substrate II). It counts as biochemical. The method, then: (§1) Several hydroxamic acids and salts thereof were analyzed in in vitro assays to determine their ability to inhibit the MMP cleavage of peptide substrates. […] and IC50 constants were calculated from the assayed hydroxamic acid-MMP interactions.
(§2) Human recombinant MMP-1, MMP-2, MMP-9, MMP-13, and MMP-14 were used in this assay. All enzymes were prepared in Assignee's laboratories following usual laboratory procedures. Protocols for the preparation and use of these enzymes are available in the scientific literature. See, e.g., Enzyme Nomenclature (Academic Press, San Diego, Calif., 1992) (and the citations therein). See also, Freije et al., “Molecular cloning and expression of collagenase-3, a novel human matrix metalloproteinase produced by breast carcinomas,” J Biol. Chem., 269(24), 16766-16773 (1994).
The MMP-2 proenzyme was purified by gelatin Sepharose chromatography from MMP-2-transfected p2AHT2 cells provided by Dr. Gregory Goldberg of Washington University (St. Louis, Mo.).
(§3) All MMPs were activated using 4-aminophenylmercuric acetate (“APMA”, Sigma Chemical, St. Louis, Mo.) or trypsin. MMP-9 also was activated using human recombinant MMP-3 (purified in Assignee's laboratory following standard cloning and purification techniques).
(§4) Two fluorogenic, methoxycoumarin-containing polypeptide substrates were used in the MMP inhibition assays: [drawing 427] Here, “Dpa” is 3-(2,4-dinitrophenyl)-L-2,3-diaminopropionyl group, and “MCA” is 7-methoxycoumarin-4-yl acetyl. Substrate (I) was purchased from Baychem (Redwood City, Calif.), and substrate II was prepared Assignee's laboratory. Substrate I was used in the IC50 determination assays, while substrate II was used in the Ki determination assays. In the absence of MMP inhibitory activity, either substrate is cleaved at the Gly-Leu peptide bond. This cleavage separates the highly fluorogenic peptide from the 2,4-dinitrophenyl quencher, thus resulting in increase of fluorescent intensity.
(§5) The stock solutions of the assayed hydroxamic acids (or salts thereof) were prepared in 1% dimethyl sulfoxide (DMSO). These stock solutions were diluted in Buffer A (100 mM Tris-HCl, 100 mM NaCl, 10 mM CaCl2, 0.05% polyoxyethylene 23 lauryl ether, pH 7.5) to obtain solutions with different hydroxamic acid concentrations, i.e., assay solutions with different concentrations of the assayed MMP inhibitory compound. The experiment controls contained the same amount of Buffer A/DMSO as the assayed sample, but contained no hydroxamic acid (or salt thereof).
The assays from which the Ki determinations were made were performed as follows. The assayed hydroxamic acid samples were incubated in separate wells of untreated white polystyrene plates (Nunc Nalgene International, Rochester, N.Y.), and analyzed on a Tecan SpectraFlour Plus plate reader. The excitation wavelength was 330 nm, and the emission wavelength—420 nm. All samples (assayed hydroxamic acids and controls) were incubated in separate plate wells at room temperature for 1 hr in the presence of 4 μM of MMP substrate (II). In the absence of MMP inhibitory activity, substrate II was cleaved at the Gly-Leu bond resulting in an increase of relative fluorescence. Inhibition was observed as a reduced rate of this increase in relative fluorescence. The various hydroxamic acids were analyzed using a single low enzyme concentration with a single substrate concentration fixed at or below the Km. This protocol is a modification of method by Knight et al., FEBS Lett., 296(3), 263-266 (1992). Apparent inhibitory constants were determined by non-linear regression of reaction velocity as a function of inhibitor and enzyme concentration using Morrison's equation, as described by Kuzmic, Anal. Biochem. 286, 45-50 (2000). […] Since the substrate concentration was chosen to be at or below the Km, the apparent Ki's from this analysis were reported as Ki's without correction for the influence of substrate.

A further assay has as its target T2, MMP-9 (Homo sapiens, UniProt P14780).
T2 construct: made in house; host or cells: MMP-9-transfected HT1080 cells (spent media)
Described as above. The class given is biochemical. The method, then: as §1, §2
The MMP-9 proenzyme was purified by gelatin Sepharose chromatography from spent media of MMP-9-transfected HT1080 cells provided by Dr. Howard Welgus of Washington University (St. Louis, Mo.).
as §3, §4, §5
The assays from which the Ki determinations were made were performed as follows. The assayed hydroxamic acid samples were incubated in separate wells of untreated white polystyrene plates (Nunc Nalgene International, Rochester, N.Y.), and analyzed on a Tecan SpectraFlour Plus plate reader. The excitation wavelength was 330 nm, and the emission wavelength—420 nm. All samples (assayed hydroxamic acids and controls) were incubated in separate plate wells at room temperature for 1 hr in the presence of 4 μM of MMP substrate (II). In the absence of MMP inhibitory activity, substrate II was cleaved at the Gly-Leu bond resulting in an increase of relative fluorescence. Inhibition was observed as a reduced rate of this increase in relative fluorescence. The various hydroxamic acids were analyzed using a single low enzyme concentration with a single substrate concentration fixed at or below the Km. This protocol is a modification of method by Knight et al., FEBS Lett., 296(3), 263-266 (1992). Apparent inhibitory constants were determined by non-linear regression of reaction velocity as a function of inhibitor and enzyme concentration using Morrison's equation, as described by Kuzmic, Anal. Biochem. 286, 45-50 (2000). Modifications were made in the non-linear regression method to allow a common control reaction rate and effective enzyme concentration to be shared between all dose-response relationships on a given assay plate. […]

Where [1] appears, read: human recombinant enzyme, 4 μM substrate II, room temperature, 1 hr, read-out: MMP-2 Ki.
Setting [2] is: human recombinant enzyme, 4 μM substrate II, room temperature, 1 hr.
Where [3] appears, read: value not in parenthesis, read-out: MMP-2 Ki.
Setting [4] is: MMP-2 Ki, value not in parenthesis.

T2 sequence (P14780 107-707 limits assumed): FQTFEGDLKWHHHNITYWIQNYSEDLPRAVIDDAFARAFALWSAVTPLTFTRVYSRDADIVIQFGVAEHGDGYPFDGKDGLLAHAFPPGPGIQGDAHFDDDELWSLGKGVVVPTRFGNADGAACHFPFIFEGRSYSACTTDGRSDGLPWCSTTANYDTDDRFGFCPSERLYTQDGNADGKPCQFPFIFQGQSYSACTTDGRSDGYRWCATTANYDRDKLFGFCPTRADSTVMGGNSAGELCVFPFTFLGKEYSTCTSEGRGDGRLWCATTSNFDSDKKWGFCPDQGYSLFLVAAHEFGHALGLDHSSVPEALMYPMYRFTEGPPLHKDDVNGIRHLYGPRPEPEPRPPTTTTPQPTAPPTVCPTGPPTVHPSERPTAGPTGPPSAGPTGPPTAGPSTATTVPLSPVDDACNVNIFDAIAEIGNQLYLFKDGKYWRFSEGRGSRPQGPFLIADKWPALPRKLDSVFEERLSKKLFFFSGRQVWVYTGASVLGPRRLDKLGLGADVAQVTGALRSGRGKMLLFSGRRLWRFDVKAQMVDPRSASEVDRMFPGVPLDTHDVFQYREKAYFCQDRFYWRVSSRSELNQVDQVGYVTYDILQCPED

As for `CCCCOc1ccc(C2CCN(S(=O)(=O)C3(C(=O)NO)CCN(CCOC)CC3)CC2)cc1` [Example 16, 4-{[4-(4-butoxyphenyl)piperidin-1-yl]sulfonyl}-N-hydroxy-1-(2-methoxyethyl)piperidine-4-carboxamide Hydrochloride], the values for the inhibition constant Ki on MMP-2 (setting [1]) and on MMP-9 (setting [2]) were 1.24 nM and 0.47 nM, respectively.

Turning to `O=C(NO)C1(S(=O)(=O)N2CCN(c3ccc(CCC(F)(F)C(F)(F)F)cc3)CC2)CCOCC1` [Example 17, N-hydroxy-4-({4-[4-(3,3,4,4,4-pentafluorobutyl)phenyl]piperazin-1-yl}sulfonyl)tetrahydro-2H-pyran-4-carboxamide Hydrochloride], the Ki is 0.418 nM on MMP-2 (setting [1]) and 1.01 nM on MMP-9 (setting [2]).

For `O=C(NO)C1(S(=O)(=O)N2CCC(c3ccc(CCC(F)(F)C(F)(F)F)cc3)CC2)CCOCC1` [Example 18, N-hydroxy-4-({4-[4-(3,3,4,4,4-pentafluorobutyl)phenyl]piperidin-1-yl}sulfonyl)tetrahydro-2H-pyran-4-carboxamide], the Ki at MMP-2 (setting [1]) was determined as 0.565 nM; on MMP-9 (setting [2]) it was 0.398 nM.

Regarding `CCCCc1ccc(C2CCN(S(=O)(=O)C3(C(=O)NO)CCOCC3)CC2)s1` [Example 19, 4-{[4-(5-butylthien-2-yl)piperidin-1-yl]sulfonyl}-N-hydroxytetrahydro-2H-pyran-4-carboxamide], the Ki at MMP-2 (setting [1]) is 2.06 nM; on MMP-9 (setting [2]), 0.5 nM.

As for `COCCN1CCC(C(=O)NO)(S(=O)(=O)N2CCC(c3ccc(OCCCC(F)(F)F)cc3)CC2)CC1` [Example 20, N-hydroxy-1-(2-methoxyethyl)-4-({4-[4-(4,4,4-trifluorobutoxy)phenyl]piperidin-1-yl}sulfonyl)piperidine-4-carboxamide Hydrochloride], the Ki came out at 0.83 nM at MMP-2 (setting [1]) and 3.86 nM at MMP-9 (setting [2]).

With `CCCCCc1ccc(N2CCN(S(=O)(=O)C3(C(=O)NO)CCN(C(=O)C(F)(F)F)CC3)CC2)cc1` [Example 21, N-hydroxy-4-{[4-(4-pentylphenyl)piperazin-1-yl]sulfonyl}-1-(trifluoroacetyl)piperidine-4-carboxamide Hydrochloride], the Ki at MMP-2 (setting [1]) was 3.82 nM; on MMP-9 (setting [2]), 8.18 nM.

In the case of `CCCCCc1ccc(N2CCN(S(=O)(=O)C3(C(=O)NO)CCN(CC)CC3)CC2)cc1F` [Example 22, 1-ethyl-4-{[4-(3-fluoro-4-pentylphenyl)piperazin-1-yl]sulfonyl}-N-hydroxypiperidine-4-carboxamine Hydrochloride], the Ki at MMP-2 (setting [1]) was 3.19 nM; on MMP-9 (setting [2]), 3.2 nM.

For the molecule `CCCCCc1ccc(N2CCN(S(=O)(=O)C3(C(=O)NO)CCOCC3)CC2)c(F)c1` [Example 23, 4-{[4-(2-fluoro-4-pentylphenyl)piperazin-1-yl]sulfonyl}-N-hydroxytetrahydro-2H-pyran-4-carboxamide Hydrochloride], the inhibition constant (Ki) worked out at 8.25 nM at MMP-2 (setting [1]) and 2.67 nM on MMP-9 (setting [2]).

Turning to `CCCCc1ccc(C2CCN(S(=O)(=O)C3(C(=O)NO)CCN(C4CC4)CC3)CC2)nc1` [Example 24, 4-{[4-(5-butylpyridin-2-yl)piperidin-1-yl]sulfonyl}-1-cyclopropyl-N-hydroxypiperidine-4-carboxamide Hydrochloride], the Ki amounted to 0.91 nM on MMP-2 (setting [1]) and 0.12 nM on MMP-9 (setting [2]).

As to `O=C(NO)C1(S(=O)(=O)N2CCC(c3ccc(OCC(F)(F)F)cc3)CC2)CCN(C2CC2)CC1` [Example 25, 1-cyclopropyl-N-hydroxy-4-({4-[4-(2,2,2-trifluoroethoxy)phenyl]piperidin-1-yl}sulfonyl)piperidine-4-carboxamide Hydrochloride], the Ki is 1.18 nM on MMP-2 (setting [1]) and 6 nM at MMP-9 (setting [2]).

Consider `CCCCCCCCC1CCN(S(=O)(=O)C2(C(=O)NO)CCOCC2)CC1` [Example 26, 4-(4-octyl-piperidine-1-sulfonyl)-tetrahydro-pyran-4-carboxylic Acid Hydroxyamide], for which the Ki was found to be 0.78 nM on MMP-2 (setting [1]) and 0.33 nM at MMP-9 (setting [2]).

As to `O=C(NO)C1(S(=O)(=O)N2CCC(c3cnc(OCC(F)(F)C(F)(F)F)cn3)CC2)CCOCC1` [Example 27], the Ki at MMP-2 (setting [1]) was determined as 0.59 nM; at MMP-9 (setting [2]), 0.54 nM.

As for `CCCCCc1cnc(N2CCN(S(=O)(=O)C3(C(=O)NO)CCOCC3)CC2)s1` [Example 56], the Ki on MMP-2 (setting [3]) is 1.02 nM; on MMP-9 (value not in parenthesis), 3.49 nM.

For the molecule `O=C(NO)C1(S(=O)(=O)N2CCN(c3ccc(-c4ccc(Cl)cc4)cn3)CC2)CCOCC1` [Example 60], the Ki at MMP-2 (setting [3]) was found to be 0.54 nM; on MMP-9 (value not in parenthesis), 7.05 nM.

For the molecule `O=C(NO)C1(S(=O)(=O)N2CCN(c3ccc(COCC(F)(F)C(F)(F)C(F)(F)C(F)F)cc3)CC2)CCOCC1` [Example 68], the Ki was found to be 4.69 nM on MMP-2 (setting [4]) and 208 nM at MMP-9 (value not in parenthesis).

With `O=C(NO)C1(S(=O)(=O)N2CCN(c3ccc(COCC(F)(F)C(F)(F)C(F)(F)F)cc3)CC2)CCOCC1` [Example 69], the inhibitory constant (Ki) on MMP-2 (setting [4]) came to 5.44 nM; on MMP-9 (value not in parenthesis), 202 nM.

On to `C=CCCOC(=O)N1CCC(C(=O)NO)(S(=O)(=O)N2CCN(c3ccc(OCCCC)cc3)CC2)CC1` [Example 101], for which the Ki at MMP-2 (setting [3]) was determined as 1.64 nM; at MMP-9 (value not in parenthesis), 3.8 nM.

Regarding `COCCN1CCC(C(=O)NO)(S(=O)(=O)N2CCN(c3ccc(OCCCC(F)(F)F)cc3F)CC2)CC1` [Example 102], the figures for the Ki at MMP-2 (setting [3]) and at MMP-9 (value not in parenthesis) were 1.25 nM and 18.1 nM, respectively.

On to `O=C(NO)C1(S(=O)(=O)N2CCN(c3ncc(Br)cn3)CC2)CCOCC1` [Example 103], for which the Ki amounted to 3.44 nM on MMP-2 (setting [3]) and 10.5 nM on MMP-9 (value not in parenthesis).

For `O=C(NO)C1(S(=O)(=O)N2CCN(c3ncc(Br)cn3)CC2)CCOCC1` [Example 104], the results for the Ki at MMP-2 (setting [3]) and at MMP-9 (value not in parenthesis) were 4.73 nM and 11.9 nM, respectively.
